# Assay results reported in PMC4433340 (PLoS Neglected Tropical Diseases, 2015).
# Legend:
# [1] = tested on: NF-κB pathway (p-IKK, p-IκB) in T. cruzi-infected EA.hy926 cells; experiment: IKK and IκB phosphorylation by Western blot; type: cell-based, human; settings: 5 μM simvastatin or 20 μM benznidazole, T. cruzi 1 hour
# Protocol: (§1) 5x10^5 endothelial cells were rinsed once with PBS and scraped. Proteins were extracted into 100 μL RIPA buffer plus a protease and phosphatase inhibitor cocktail (Radio-Immunoprecipitation Assay; Millipore Corporation, USA) at 4°C. Total protein was quantified with the Lowry assay. Samples in loading buffer (10% SDS, 50% glycerol, 0.5 M Tris, 0.1% bromophenol blue, and 1 M dithiothreitol, pH 6.8) were electrophoretically separated by 10% SDS-PAGE and transferred to a nitrocellulose membrane. Nitrocellulose membranes were incubated with blocking solution (5% w/v nonfat dry milk, 0.1% Tween-20 in Tris-buffered saline) at room temperature for 1 hour. Then, the membranes were incubated at 4°C overnight with 1 mL solution of primary antibodies against E-selectin (1:1000) and α-Tubulin (1:10.000) from Sigma-Aldrich, ICAM-1 (1:2000) and VCAM-1 (1:1000) from Abcam, 7 ml solution of p-IKK (1:1000), IKK (1:1000), p-IκB (1:1000) and IκB (1:1000) from Cell signaling (Cell Signaling Technologies, USA). Bound antibodies were detected with horseradish peroxidase-conjugated secondary antibodies and visualized by Lumminata forte (Millipore). The nitrocellulose was stripped between reprobes using Mild stripping (Millipore) for 10 minutes. Developed films were scanned, and band densitometry was analyzed using ImageJ software (ImageJ 1.47v).
# [2] = tested on: intracellular T. cruzi amastigotes in EA.hy926 cells; experiment: DAPI staining and intracellular amastigote quantification; type: cell-based, Trypanosoma cruzi; settings: 5 μM simvastatin or 20 μM benznidazole for 24 hours before infection; counted after 72 hours
# Protocol: 2x10^4 EA.hy926 cells/slide were seeded in Lab-Tek II Chamber Slides for 12 h. […] Then, the cells were washed and fixed in cold methanol (70%) overnight. The fixed cells were then washed, and 1 mL PBS (pH 7.4) was added. DNA was stained with DAPI (NucBlue; Molecular Probes, USA) following the manufacturer's instructions. The cells were photographed using a Nikon Eclipse 400 fluorescence microscope using 358 nm (excitation) and 461 nm (emission) wavelengths. In total, ten pictures were obtained per well, and each picture was counted using MATLAB software.
# In Fig 3, total E-selectin (Fig 3A), ICAM-1 (Fig 3B) and VCAM-1 (Fig 3C) protein expression analyses are shown. […] To evaluate parasite load, DAPI-stained cells were photographed (20.12 ± 3.8 cells per photograph, 20 photographs per experimental condition; infected to uninfected cells ratio of 1:5) and the number of intracellular amastigotes was determined by manual count.
# [3] = tested on: 15-epi-lipoxin A4 production by EA.hy926 cells; experiment: 15-epi-lipoxin A4 determination by ELISA in culture supernatants; type: cell-based, human; settings: ELISA (Fig 7A); for 15-epi-LXA4 production in T. cruzi-infected endothelial cells: EA.hy926 infected 16 hours, drug added afterwards
# Protocol: 8x10^5 EA.hy926 cells/well were cultured in 6-well plates (IMDM 10% SFB). […] 15-epi-LXA4 determination was performed by:
# • ELISA assay: the supernatant from the cell cultures was assayed using a 15-epi-LXA4 BioAssay ELISA Kit (USBiological, USA) following manufacturer’s instructions. • AxION DSA—TOF MS determination: To determine 15-epi-lipoxin A4 levels in EAhy926 cell culture supernatants, an AxION Direct Sample Analysis (DSA) that was integrated with an AxION 2 time-of-flight (TOF) mass spectrometer (PerkinElmer, Shelton, CT, USA) was employed. For extraction, all of the samples were loaded onto a solid phase extraction and eluted with 1 mL chloroform three times successively. Then, the samples were transferred into a clean tube, and the chloroform in the samples was evaporated in a water bath. Finally, the samples were resuspended in 100 μL ethanol, and 10 μL were pipetted onto a stainless mesh. For the calibration curve, 15-epi-lipoxin A4 (cat#90415, Cayman Chemical, USA) was diluted in PBS to achieve different final concentrations (see S1 Fig). From each tube, 10 μL was pipetted onto a stainless mesh, and DSA—TOF determination was performed. The AxION DSA conditions were as follows: 5 μA corona current, 250°C heater temperature, 80 psi auxiliary gas (N2) pressure, 4 L/min drying gas (N2) flow, and 25°C drying gas (N2) temperature. […] Mass spectra were acquired with a mass range of 100–1000 m/z and an acquisition rate of 2 spectra/sec. To maintain mass accuracy, […] lock mass ions were used (m/z 119.0400, m/z 556.0000 and m/z 805.9900). All of the samples were analyzed for only 10 sec. The standards used were 15-epi-lipoxin A4 (cat#90415, Cayman Chemical,) and 5(S),6(R)-Lipoxin A4 methyl ester (cat#10033, Cayman Chemical) as an internal standard. These were confirmed in seconds by accurate mass and isotopic distribution of parent and fragment ions using DSA/TOF and AxION software, and compound identification was performed using the standards. All of the samples were analyzed in triplicate.
# [4] = tested on: total E-selectin, ICAM-1 and VCAM-1 protein in T. cruzi-infected endothelial cells; experiment: Total ECAM protein by Western blot; type: cell-based, human; settings: 5 μM simvastatin or 20 μM benznidazole for 24 hours before 16 hours infection
# Protocol: as §1
# [5] = tested on: HL-60 leukocyte adhesion to T. cruzi-infected endothelial cells; experiment: Leukocyte-endothelium cell adhesion assay; type: cell-based, human; settings: 5 μM simvastatin or 20 μM benznidazole for 24 hours before 16 hours infection; HL-60 leukocytes
# Protocol: The leukocyte adhesion assay was performed with the Cytoselect Leukocyte-Endothelium Adhesion Assay kit (CBA-210; Cell Biolabs, USA). Briefly, EA.hy926 cells were cultured in 96-well plates that had been previously coated with gelatin for 1 hour. […] LeukoTracker-labeled leukocytes (HL60 cells) were added to the monolayer and incubated for 90 min. After thorough washing, cells were lysed, and fluorescence was measured at 480 nm excitation/520 nm emission. The percentage of adherent leukocytes was calculated: % adherence = adherent signal/total signal. All of the determinations were performed in triplicate using a fluorescence microplate reader (Varioskan, Thermo Scientific).
# [6] = tested on: HL-60 cells; experiment: Cell viability by MTT reduction assay, HL-60 cells; type: cell-based; settings: Homo sapiens, 24 hours incubation, mean ± SD, n = 3, read-out: IC50, cellular viability, HL-60 cells
# Protocol: HL-60 cells (ATCC CCL240) are a promyelocytic cell line that was derived by S.J. Collins et al. Peripheral blood leukocytes were obtained by leukapheresis from a person with acute promyelocytic leukemia. The cell line was cultured with Iscove's Modified Dulbecco's Medium plus 10% v/v FBS.
# The effect of the drug on all cells and parasite viability was evaluated through the tetrazolium salt (MTT, Sigma-Aldrich) reduction assay as described. […] Cultures were incubated for 24 hours before adding MTT for 4 hours. The plates were incubated overnight with 10% SDS w/v in 0.01 M HCl at 37°C, and optical density (OD) was determined using a microplate reader (Labsystems Multiskan MS, Finland) at 570 nm. Under these conditions, the OD was directly proportional to viable cell number per well. All of the experiments were performed at least three times, and the data are shown as the means and their standard deviations from triplicate cultures.
Compound,"Response of the IKK-IκB system (p-IKK, p-IκB) [1]",Intracellular T. cruzi (amastigote) load [2],15-epi-LXA4 production in T. cruzi-infected endothelial cells [3],Total cell adhesion molecule protein amount [4],Leukocyte adhesiveness to infected endothelial cells [5],IC50 [6] [µM],"15-epi-LXA4 levels with drug alone ([3]; 5 μM simvastatin, EA.hy926 without T. cruzi)"
O=C(Cn1ccnc1[N+](=O)[O-])NCc1ccccc1 [Benznidazole],significantly decreased the response of the Ikk-IkB system,not affected,did not induce,decreased cell adhesion molecule amount,adhesiveness decreased,< 100,
CCC(C)(C)C(=O)O[C@H]1C[C@@H](C)C=C2C=C[C@H](C)[C@H](CC[C@@H]3C[C@@H](O)CC(=O)O3)[C@H]21 [Simvastatin],significantly decreased the response of the Ikk-IkB system,not affected,induced 15-epi-LXA4,decreased cell adhesion molecule amount,adhesiveness decreased,68 ± 1.11,rose slightly
